Measurements taken from ChEMBL document CHEMBL4699624, “Targeting Trimeric and Tetrameric Proanthocyanidins of Cinnamomum verum Bark as Bioactives for Dental Therapies” (J Nat Prod, 2020).
Calls of active or inactive are those of the source. The calls are words filed in the database; no cut-off is given here.

Experiments:
Dentine = test: Induction of apparent modulus of elasticity in human molar dentine after 1 hr by bending method; type: functional, tissue-based
Hathewaya histolytica = test: Inhibition of Clostridium histolyticum collagenase-induced degradation of human molar dentin assessed as reduction in degradation after 24 hrs

Oc1cc(O)c2c(c1)O[C@@]1(c3ccc(O)c(O)c3)Oc3cc(O)c4c(c3[C@@H]2[C@H]1O)O[C@H](c1ccc(O)c(O)c1)[C@H](O)[C@H]4c1c(O)cc2c(c1O)[C@@H]1c3c(cc(O)c4c3O[C@H](c3ccc(O)c(O)c3)[C@@H](O)C4)O[C@](c3ccc(O)c(O)c3)(O2)[C@@H]1O
Activity (Dentine): Active | inhibition (Hathewaya histolytica): Active

Oc1cc(O)c2c(c1)O[C@@]1(c3ccc(O)c(O)c3)Oc3cc(O)c4c(c3[C@@H]2[C@H]1O)O[C@H](c1ccc(O)c(O)c1)[C@H](O)[C@H]4c1c(O)cc(O)c2c1O[C@H](c1ccc(O)c(O)c1)[C@H](O)C2
Activity (Dentine): Active | inhibition (Hathewaya histolytica): Active

Oc1cc(O)c2c(c1)O[C@H](c1ccc(O)c(O)c1)[C@H](O)[C@H]2c1c(O)c2c(c3c1O[C@]1(c4ccc(O)c(O)c4)Oc4cc(O)cc(O)c4[C@H]3[C@H]1O)O[C@H](c1ccc(O)c(O)c1)[C@H](O)[C@H]2c1c(O)cc(O)c2c1O[C@H](c1ccc(O)c(O)c1)[C@H](O)C2
Activity (Dentine): Active | inhibition (Hathewaya histolytica): Active
